Columns and labels:
[1] = molecular target: mutated isocitrate dehydrogenase (mIDH) protein, LN229 R132H cells (Homo sapiens (Human), UniProt O75874, R132H); experiment: Mutant IDH1 cellular assay (2-HG in medium of LN229 R132H cells); type: cell-based; details: 2-HG levels in medium, 24 hours
Method: Mutant IDH1 Cellular Assay
They were harvested by trypsin and seeded into 96-well plates. Cells were incubated overnight at 37° C. in 5% CO2. The next day test compounds were added to each cell well. The final concentration of DMSO was 0.1% and DMSO controls were included. The plates were then placed in an incubator for 24 hours.
2-HG was measured according to Balss et al. (Acta Neuropathol (2012) 124: 883-891). Briefly, HClO4 was added to each well and the plates were centrifuged. Aliquots are removed and incubated with hydroxyglutarate dehydrogenase (HGDH), diaphorase, NAD+, and resazurin. The conversion of resazurin to resorufin was detected by fluorescence spectroscopy at Ex 540 nm Em 600 nm. The increase in fluorescence is proportional to 2-HG production. IC50 values are determined by interpolation from plots of relative fluorescence vs inhibitor concentration.

[2] = molecular target: IDH1 R132H enzyme (Homo sapiens (Human), UniProt O75874, R132H); experiment: Mutant IDH1 R132H biochemical assay; details: NADPH consumption, luminescent readout; 1.5 nM enzyme, 1 μM NADPH, 250 μM α-KG, 30 minutes, 32° C.
IDH1 R132H enzyme, sequence (O75874 whole entry R132H): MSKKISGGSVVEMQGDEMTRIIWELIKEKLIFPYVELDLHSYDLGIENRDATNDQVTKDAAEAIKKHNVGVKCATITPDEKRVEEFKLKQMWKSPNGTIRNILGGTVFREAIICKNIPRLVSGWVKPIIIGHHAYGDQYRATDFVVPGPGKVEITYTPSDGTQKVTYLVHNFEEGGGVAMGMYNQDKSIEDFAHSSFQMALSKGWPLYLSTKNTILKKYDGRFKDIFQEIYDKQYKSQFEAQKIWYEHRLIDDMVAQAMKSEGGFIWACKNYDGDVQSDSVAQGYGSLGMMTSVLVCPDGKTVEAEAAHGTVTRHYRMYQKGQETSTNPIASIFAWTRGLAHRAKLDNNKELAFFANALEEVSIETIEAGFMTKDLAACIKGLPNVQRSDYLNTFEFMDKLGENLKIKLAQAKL
Method: NADPH consumption was measured by luminescent readout. […] The final DMSO concentration was 2.4%. […] Luminescence was measured on a luminescent reader (10 seconds measuring time, 1 second integration period, 30% sensitivity). The decrease in luminescence is proportional to mIDH1 activity. IC50 values are determined by interpolation from plots of relative luminescence versus inhibitor concentration.

mutated isocitrate dehydrogenase (mIDH) protein, LN229 R132H cells, sequence (O75874 whole entry R132H): as above

Row | Compound | IC50 [1] [nM] | IC50 [2] [nM]
1 | Cc1cc2c(cc1C(=O)O)nc(Cc1ccc(OC(F)(F)F)cc1)n2[C@@H]1C[C@H](C)CC(C)(C)C1 (stereo in doubt) [Example 2-44-1] | 400 | 20
2 | COc1cc2c(cc1C(=O)O)nc(Cc1ccc(OC(F)(F)F)cc1)n2[C@@H]1C[C@H](C)CC(C)(C)C1 (single isomer, unassigned) [Example 2-45-1] | 1600 | 300
3 | CC(C)Oc1cc2c(cc1C(=O)O)nc(Cc1ccc(OC(F)(F)F)cc1)n2[C@@H]1C[C@H](C)CC(C)(C)C1 (stereo in doubt) [Example 2-46-1] | 600 | 120
4 | C[C@H]1C[C@@H](n2c(Cc3ccc(C(F)(F)F)cc3)nc3cc(C(=O)O)ccc32)CC(C)(C)C1 (stereo in doubt) [Example 2-34] | 1900 | 120
5 | CC1(C)CC(n2c(Cc3ccc(OC(F)(F)F)cc3)nc3c(F)c(C(=O)O)ccc32)CC(C)(C)C1 [Example 2-48] | 800 | 80
6 | C[C@H]1C[C@@H](n2c(Cc3ccc(C(C)(C)C)cc3)nc3cc(C(=O)O)ccc32)CC(C)(C)C1 (stereo in doubt) [Example 2-37] | 2500 | 50
7 | COC(=O)c1cc2nc(Cc3ccc(OC(F)(F)F)cc3)n([C@H]3C[C@@H](C)CC(C)(C)C3)c2cc1C (single isomer, unassigned) [Example 2-18-1, methyl 6-methyl-2-[4-(trifluoromethoxy)benzyl]-1-[(cis)-3,3,5-trimethylcyclohexyl]-1H-benzimidazole-5-carboxylate] | 2600 | 140
8 | CC(C)Oc1cc2c(cc1C(=O)O)nc(Cc1ccc(OC(F)(F)F)cc1)n2[C@@H]1C[C@H](C)CC(C)(C)C1 (stereo in doubt) [Example 2-46] | 1500 | 330
9 | COc1cc2c(cc1CCC(=O)O)nc(Cc1ccc(OC(F)(F)F)cc1)n2[C@H]1C[C@@H](C)CC(C)(C)C1 (stereo in doubt) [Example 2-50-2] | 380 | 20
10 | CC(C)Oc1ccc(Cc2nc3cc(C(=O)O)ccc3n2[C@@H]2C[C@H](C)CC(C)(C)C2)cc1 (stereo in doubt) [Example 2-32] | 2700 | 250
11 | COc1cc2c(cc1C(=O)O)nc(Cc1ccc(OC(F)(F)F)cc1)n2[C@H]1C[C@@H](C)CC(C)(C)C1 (stereo in doubt) [Example 2-45-2] | 120 | 20
12 | COC(=O)c1ccc2c(c1)nc(Cc1ccc(C(C)C)cc1)n2[C@H]1C[C@@H](C)CC(C)(C)C1 (racemic) [Example 2-7, (±) methyl 2-[4-(propan-2-yl)benzyl]-1-[(cis)-3,3,5-trimethylcyclohexyl]-1H-benzimidazole-5-carboxylate] | 3000 | 330
13 | COC(=O)c1cc2nc(Cc3ccc(OC(F)(F)F)cc3)n([C@H]3C[C@@H](C)CC(C)(C)C3)c2cc1C (racemic) [Example 2-18, (±) methyl 6-methyl-2-[4-(trifluoromethoxy)benzyl]-1-[(cis)-3,3,5-trimethylcyclohexyl]-1H-benzimidazole-5-carboxylate] | 1800 | 150
14 | COc1cc2c(cc1C(=O)O)nc(Cc1ccc(OC(F)(F)F)cc1)n2[C@@H]1C[C@H](C)CC(C)(C)C1 (racemic) [Example 2-45] | 160 | 30
15 | Cc1cc2c(cc1CCC(=O)O)nc(Cc1ccc(OC(F)(F)F)cc1)n2[C@@H]1C[C@H](C)CC(C)(C)C1 (stereo in doubt) [Example 2-49] | 280 | 80
16 | CC(C)Oc1ccc(Cc2nc3cc(C(=O)O)ccc3n2[C@H]2C[C@@H](C)CC(C)(C)C2)cc1 (stereo in doubt) [Example 2-32-2] | 2500 | 300
17 | Cc1cc2c(cc1C(=O)O)nc(Cc1ccc(OC(F)(F)F)cc1)n2[C@H]1C[C@@H](C)CC(C)(C)C1 (stereo in doubt) [Example 2-44-2] | 2600 | 130
18 | CC1(C)CC(n2c(Cc3ccc(OC(F)(F)F)cc3)nc3c(F)c(CCC(=O)O)ccc32)CC(C)(C)C1 [Example 2-52, 3-{4-fluoro-1-(3,3,5,5-tetramethylcyclohexyl)-2-[4-(trifluoromethoxy)benzyl]-1H-benzimidazol-5-yl}Propanoic Acid] | 1800 | 80
19 | CC(C)c1ccc(Cc2nc3cc(C(=O)O)ccc3n2[C@@H]2C[C@H](C)CC(C)(C)C2)cc1 (stereo in doubt) [Example 2-33] | 350 | 50
20 | Cc1ccc(Cc2nc3cc(C(=O)O)ccc3n2[C@@H]2C[C@H](C)CC(C)(C)C2)cc1 (stereo in doubt) [Example 2-36] | – | 580
21 | Cc1nc(-c2ccccc2)sc1Cc1nc2cc(C(=O)O)ccc2n1[C@@H]1C[C@H](C)CC(C)(C)C1 (stereo in doubt) [Example 2-41] | – | 2300
22 | COC(=O)c1ccc2c(c1)nc(C(C)c1ccc(OC(F)(F)F)cc1)n2[C@H]1C[C@@H](C)CC(C)(C)C1 (single isomer, unassigned) [Reference compound 2-4-1, methyl 2-{1-[4-(trifluoromethoxy)phenyl]ethyl}-1-[(cis)-3,3,5-trimethylcyclohexyl]-1H-benzimidazole-5-carboxylate, reference compound] | – | > 10000
23 | C[C@@H]1C[C@H](n2c(Cc3ccc(C(F)(F)F)cc3)nc3cc(C#N)ccc32)CC(C)(C)C1 (racemic) [Example 2-26, (±) 2-[4-(trifluoromethyl)benzyl]-1-[(cis)-3,3,5-trimethylcyclohexyl]-1H-benzimidazole-5-carbonitrile] | – | 700
24 | COC(=O)c1ccc2c(c1)nc(Cc1ccc(OC(F)(F)F)cc1)n2[C@H]1C[C@@H](C)CC(C)(C)C1 (single isomer, unassigned) [Example 2-3-2, methyl 2-[4-(trifluoromethoxy)benzyl]-1-[(cis)-3,3,5-trimethylcyclohexyl]-1H-benzimidazole-5-carboxylate] | – | 610
25 | COC(=O)c1ccc2c(c1)nc(C(C)c1ccc(OC(F)(F)F)cc1)n2[C@H]1C[C@@H](C)CC(C)(C)C1 (relative stereo) [Reference compound 2-4, methyl 2-{1-[4-(trifluoromethoxy)phenyl]ethyl}-1-[(cis)-3,3,5-trimethylcyclohexyl]-1H-benzimidazole-5-carboxylate, reference compound] | – | > 10000
26 | COc1cc2c(cc1CCC(=O)O)nc(Cc1ccc(OC(F)(F)F)cc1)n2[C@@H]1C[C@H](C)CC(C)(C)C1 (single isomer, unassigned) [Example 2-50-1] | 3600 | 200
27 | Cc1cc2c(cc1C(=O)O)nc(Cc1ccc(OC(F)(F)F)cc1)n2[C@@H]1C[C@H](C)CC(C)(C)C1 (stereo in doubt) [Example 2-44] | 170 | 70
28 | COc1cc2c(cc1CCC(=O)O)nc(Cc1ccc(OC(F)(F)F)cc1)n2[C@@H]1C[C@H](C)CC(C)(C)C1 (racemic) [Example 2-50] | 210 | 30
